Experiment [1] has as its system HEK293. Description: viability loss in HEK293T cells – cell-based, ATP luminescence, cherry-pick samples, cytotoxicity control, dose response (AID 687005).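 Note: cells exposed to compound for 48 hours.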 The experiment is classed as functional. Conditions: Homo sapiens.
The nature of experiment [2]: HEK293 Cytotoxicity Assay Measured in Cell-Based System Using Plate Reader - 7071-01_Inhibitor_Dose_CherryPick_Activity_Set2. The class given is functional.
In experiment [3] the test system is Cryptococcus neoformans. Description: PubChem AID 686997. The experiment is classed as functional, organism-based.
The nature of experiment [4]: Late-stage results from the probe development effort to identify antagonists of arginine vasopressin receptor 1a (AVPR1a): fluorescence-based cell-based dose response AVPR1a inhibition assay. The class given is functional.
Experiment [5] in a line: Late-stage results from the probe development effort to identify antagonists of arginine vasopressin receptor 1a (AVPR1a): fluorescence-based cell-based dose response OXTR inhibition counterscreen assay. The class given is functional. Background: Counterscreens check selectivity or assay interference.
The target of experiment [6] is Vasopressin V1b receptor (Homo sapiens, UniProt P47901). Kind of experiment: Late-stage results from the probe development effort to identify antagonists of arginine vasopressin receptor 1a (AVPR1a): fluorescence-based cell-based dose response AVPR1b inhibition counterscreen assay. The experiment is classed as functional.
Experiment [7] deals with Vasopressin V2 receptor (Homo sapiens, UniProt P30518). Kind of experiment: Late-stage results from the probe development effort to identify antagonists of arginine vasopressin receptor 1a (AVPR1a): fluorescence-based cell-based dose response AVPR2 inhibition counterscreen assay. The class given is functional.
The nature of experiment [8]: blockers of FN fibrillogenesis by fibroblasts – AH1F cells, Alexa488-FN fluorescence, cherry-picks, dose response (AID 1035475). The class given is functional, cell-based.
For experiment [9], the target named is Kallikrein-7 (Homo sapiens, UniProt P49862). Kind of experiment: Fluorescence Intensity-based biochemical primary high throughput dose response assay to identify activators of kallikrein-7 (K7) zymogen.

For four molecules, AC50, IC50 and EC50 results are on record in ChEMBL document CHEMBL1201862, “PubChem BioAssay data set” (2004).

Active and inactive are the calls of the source. A value given as a limit tells only on which side of the number the result lay.

Chain of Kallikrein-7 (P49862 whole entry): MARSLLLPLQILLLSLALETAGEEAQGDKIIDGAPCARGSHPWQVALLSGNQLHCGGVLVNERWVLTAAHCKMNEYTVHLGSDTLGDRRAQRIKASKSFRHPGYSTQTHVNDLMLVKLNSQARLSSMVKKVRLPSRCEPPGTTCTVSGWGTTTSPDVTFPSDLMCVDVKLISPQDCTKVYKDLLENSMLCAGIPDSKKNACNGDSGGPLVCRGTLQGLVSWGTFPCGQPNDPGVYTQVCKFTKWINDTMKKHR
Chain of Vasopressin V1b receptor (P47901 whole entry): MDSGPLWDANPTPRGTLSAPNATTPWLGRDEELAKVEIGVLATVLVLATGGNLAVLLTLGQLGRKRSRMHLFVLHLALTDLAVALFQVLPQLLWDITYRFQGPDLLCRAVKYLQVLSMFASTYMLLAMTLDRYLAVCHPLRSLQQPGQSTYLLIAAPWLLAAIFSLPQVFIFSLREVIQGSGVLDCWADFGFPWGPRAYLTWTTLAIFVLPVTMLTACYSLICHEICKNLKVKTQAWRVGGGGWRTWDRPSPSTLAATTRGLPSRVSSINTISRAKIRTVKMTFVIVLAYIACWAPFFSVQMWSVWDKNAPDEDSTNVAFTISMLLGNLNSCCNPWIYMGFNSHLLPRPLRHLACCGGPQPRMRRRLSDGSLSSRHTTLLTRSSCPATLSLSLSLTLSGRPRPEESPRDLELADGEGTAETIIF
Chain of Vasopressin V2 receptor (P30518 whole entry): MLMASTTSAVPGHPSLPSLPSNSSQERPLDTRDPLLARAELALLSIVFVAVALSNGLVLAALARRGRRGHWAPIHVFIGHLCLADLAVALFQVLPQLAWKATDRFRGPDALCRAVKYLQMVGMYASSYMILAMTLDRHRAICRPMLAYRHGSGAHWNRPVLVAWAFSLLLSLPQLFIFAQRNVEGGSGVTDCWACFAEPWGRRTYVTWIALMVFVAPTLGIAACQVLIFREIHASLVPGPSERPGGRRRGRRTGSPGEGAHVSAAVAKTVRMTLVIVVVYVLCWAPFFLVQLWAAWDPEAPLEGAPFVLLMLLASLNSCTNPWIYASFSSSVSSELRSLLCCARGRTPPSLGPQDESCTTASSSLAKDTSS

As usually defined, the AC50 is the midpoint of the concentration-response curve, whichever way the signal moves. In the case of `COC(=O)C1=C(C)N(Cc2ccc(Br)cc2)C(=S)NC1c1ccccc1` (centres undefined), the half-maximal activity concentration (AC50) in experiment [1] is 19.8 µM (active); in [2], 19.8 µM (active); in [3], 18.8 µM (active).

For orientation: IC50 means the concentration needed to halve the response being measured. With `N#Cc1ccc(N2CCC(C(=O)N(CC3CC3)c3ccc(Cl)cc3)CC2)nc1`, the IC50 was 0.8 µM (active) in experiment [4], 20.1 µM (inactive) in experiment [5], 25.7 µM (inactive) in [6] and 30.2 µM (inactive) in experiment [7].

As to `Cc1ccc(S(=O)(=O)N2CC[C@@H]3[C@H]2c2cc(-c4cccc(C(=O)N(C)C)c4)ccc2N[C@@H]3CO)cc1`, the AC50 in [8] was 4.45 µM (active).

Broadly, the EC50 is the concentration giving half of the maximal effect. As for `COc1ccc(-c2ccc3nnc(SCC(=O)NCC4CCCO4)n3n2)cc1` (centres undefined), the EC50 in experiment [9] is > 69.5 µM (inactive).
